Data as given in patent US12564609B2, “Hematopoietic stem cell engraftment with a combination of agents” (The Board of Trustees of the Leland Stanford Junior …, priority 2020, dated 2026).

Columns and labels:
[1] = system: human Lin−CD34+CD38− cells; assay: In vitro HSC culture, cell counting and live/dead viability assay (human); format: cell-based
Procedure: (§1) A. Schematic of treatment protocol. C57BL/6 mice were injected with three different doses of AZA (1.25, 2.5 and 5 mg/kg/d) for 3 days. 24 h after last AZA injection BM was analyzed for HSC-depletion and Ki67 intracellular protein expression. B. Overlay histogram of Ki67 intracellular protein expression in LT-HSC (gated from live, Lin^−Sca1^+c-Kit^+CD150^+CD48^− cells) in mice treated with AZA 1.25 mg/kg, 2.5 mg/kg and 5 mg/kg/d for 3 consecutive days. C. Mean fluorescence intensity (MFI) of Ki67 intracellular protein expression in LT-HSC, ST-HSC, MPP2, MPP3/4 and myeloid progenitors (MP). Data were pooled from 2 independent experiments and represent mean±SD (n=7). Statistics were calculated Mann-Whitney test (*P<0.05; **P<0.01; ***P<0.001). […] After 48 h % live/dead cells was assessed by using EarlyTox Live/Dead Assay Kit. E. Proliferation curves of FACS-sorted mouse Lin^−Sca1^+c-Kit^+CD48^− in the presence of indicated concentrations of AZA (left) and cell viability as assessed by % of Calcein AM positive cells after 48 h of cell culture (right). […] Statistics were calculated with Mann-Whitney test (*P<0.05; **P<0.01; ***P<0.001). F. Proliferation curves of FACS-sorted human Lin^−CD34^+CD38^− cells in the presence of indicated concentrations of AZA (left) and cell viability as assessed by % of Calcein AM positive cells after 48 h of cell culture (right). […]

[2] = system: mouse Lin−Sca1+c-Kit+CD48− cells; assay: In vitro HSC culture, cell counting and live/dead viability assay (mouse); format: cell-based
Procedure: as §1

[3] = AZA in mouse model of HCL with transplantation of donor hematopoietic cells; format: in vivo, mice; conditions: AZA 5 mg/kg for 5 days followed by transplantation
Procedure: Wildtype and HCL mice were treated with AZA 5 mg/kg for 5 days following by transplantation of donor hematopoietic cells. % myeloid donor chimerism was assessed by flow cytometry at 4- and 16-weeks post transplantation.

donor HSC engraftment = assay: Congenic hematopoietic cell transplantation, donor chimerism in peripheral blood; format: in vivo, B6 mice
Text: Mice. C57BL/6 (B6) mice (H-2^b, Thy1.1, CD45.1/CD45.2) were recipients and B6 mice (H-2^b, Thy1.1, CD45.1) were donors for the congenic transplant experiments. BALB.B (H-2^b, Thy1.2, CD45.2) mice were used as recipients and B6 mice (H-2^b, Thy1.1, CD45.1) as donors for […] (allogeneic) transplant experiments. Recipients were >8 weeks old and donors were 8-12 weeks old at timepoint of transplantation. B6 (H-2^b, Thy1.1, CD45.2) mice were used for in vivo depletion studies. Mice were bred and maintained under pathogen free conditions at the Stanford University Research Animal Facility. All experiments were performed under a protocol approved by the Stanford Administrative Panel on Laboratory Animal Care.
In vivo administration of therapeutic agents and cytokines. Anti-mouse CD117 mAbs, clone ACK2 (BioXcell) and 2B8 (BioXcell), were injected retroorbital as a single dose of 500 μg following intraperitoneal administration of Diphenhydramine (Benadryl). Anti CD4 (clone GK1.5, BioXcell) and anti-CD8 (clone YTS169.4, BioXcell) were administered intraperitoneally at a dose of 100 μg in 100 μl phosphate-buffered saline (PBS). […] Before each injection, AZA was thawed for 10-15 min at room temperature (RT), resuspended in PBS and administered intraperitoneally in 100 μl. […]

[4] = AZA 0.1, 0.5 and 1 μg/ml at baseline and 24 h, 48 h culture with SCF and TPO
[5] = AZA concentrations 0.1 μg/ml, 48 h

Nc1ncn([C@@H]2O[C@H](CO)[C@@H](O)[C@H]2O)c(=O)n1 [AZA, 5-Azacytidine]
number of cells in culture [1, 4]: reduced the number of cells in a dose dependent manner
cell viability by Calcein AM [1, 5]: significant decrease in cell viability
number of cells in culture [2, 4]: reduced the number of cells in a dose dependent manner
cell viability by Calcein AM [2, 5]: significant decrease in cell viability
therapeutic activity [3]: shows therapeutic activity
stable engraftment of donor WBM (donor HSC engraftment; AZA 2.5 mg/kg for 5 days, 20×10^6 congenic WBM cells): does not enable stable engraftment
myeloid donor chimerism (donor HSC engraftment; single agent AZA 5 mg/kg for 5 days, congenic WBM cells): 10-15%
